Patent publication US4036840A, “2-Substituted-s-triazolo[1,5a]pyrimidines” (ICN Pharmaceuticals, priority 1975, dated 1977)

Legend:
[1] = system: 3',5'-Cyclic AMP phosphodiesterase (PDE) from lung; assay: 3',5'-Cyclic AMP phosphodiesterase (PDE) inhibition, rabbit lung enzyme (Fraction II, low Km); type: biochemical; conditions: relative to theophylline, cAMP about 1.7 × 10^-7 M, 30° C., 10 minutes, pH 7.5
[2] = system: 3',5'-Cyclic AMP phosphodiesterase (PDE) from kidney; assay: 3',5'-Cyclic AMP phosphodiesterase (PDE) inhibition, rabbit kidney enzyme (Fraction II, low Km); type: biochemical; conditions: relative to theophylline, cAMP about 1.7 × 10^-7 M, 30° C., 10 minutes, pH 7.5
anesthetized dogs = assay: Hemodynamic activity in anesthetized dogs; type: in vivo, dog; conditions: 10 mg/Kg/hr; vehicle DMSO (Saline for 44-46)
Description: Compounds 3, 41, 43-48, 51 were tested in anesthetized dogs for hemodynamic activities including cardiac output, stroke volume and heart rate. For management of low perfusion states such as cardiovascular shock and congestive heart failure, it is desirable to have increased cardiac output and increased stroke volume accompanied by a decrease or no change in heart rate.
% CHANGE OF CARDIAC OUTPUT, STROKE VOLUME AND HEART RATE AT 10 mg/Kg/hr

[3] = Solubility noted in the PDE test (Insoluble); type: physicochemical; conditions: compound not tested for PDE inhibition
Description: With respect to the compounds which are indicated in Tables I, II and III as being insoluble, although such compounds have not undergone the inhibitory test of Example XVI, due to the similarity in structure to compounds which were tested, it is expected that in vivo testing of the compounds in forms other than solution will readily indicate phosphodiesterase enzyme inhibitory capability.

Row | SMILES | PDE Lung; α (I50 theophylline / I50 compound) [1] | PDE Kidney; α (I50 theophylline / I50 compound) [2] | % change of cardiac output (anesthetized dogs) | % change of heart rate (anesthetized dogs) | % change of stroke volume (anesthetized dogs) | Solubility [3]
1 | Cc1cc(C)n2nc(SCc3ccccc3)nc2n1 [Compound 3, 2-benzylthio-5,7-dimethyl-s-triazolo[1,5a]pyrimidine] | 2.50 | 2.10 | -1% | -7% | -7% | 
2 | Cc1cc(C)n2nc(SCc3ccc(Cl)cc3)nc2n1 [Compound 4, 2-(p-chlorobenzylthio)-5,7-dimethyl-s-triazolo[1,5a]pyrimidine] | 4.00 | 4.0 |  |  |  | 
3 | CCCSc1nc2nc(C)cc(C)n2n1 [Compound 7] | 0.90 | 1.00 |  |  |  | 
4 | Cc1cc(C)n2nc(SC(C)C)nc2n1 [Compound 8] | 0.10 | 1.30 |  |  |  | 
5 | CSc1nc2nc(C)cc(C)n2n1 [Compound 9] | 0.50 | 0.25 |  |  |  | 
6 | Cc1cc(C)n2nc(SCC(C)C)nc2n1 [Compound 10] | 0.10 | 0.50 |  |  |  | 
7 | CCOC(=O)C(Sc1nc2nc(C)cc(C)n2n1)C(=O)OCC [Compound 11] | 0.50 | 0.00 |  |  |  | 
8 | Cc1cc(C)n2nc(SCc3ccc(C(=O)O)cc3)nc2n1 [Compound 12] | 1.20 | 0.70 |  |  |  | 
9 | Cc1ccc(CSc2nc3nc(C)cc(C)n3n2)cc1 [Compound 13] | 6.20 | 1.00 |  |  |  | 
10 | Cc1cccc(CSc2nc3nc(C)cc(C)n3n2)c1 [Compound 14] | 2.00 | 0.70 |  |  |  | 
11 | Cc1cc(C)n2nc(SCc3ccccc3C)nc2n1 [Compound 15] | 3.50 | 4.00 |  |  |  | 
12 | Cc1cc(C)n2nc(SCc3cc4c(cc3Cl)OCO4)nc2n1 [Compound 16] |  |  |  |  |  | Insoluble
13 | Cc1cc(C)n2nc(SCc3c(C)ccc4ccccc34)nc2n1 [Compound 17] |  |  |  |  |  | Insoluble
14 | Cc1cc(C)n2nc(SCc3ccncc3)nc2n1 [Compound 18] | 0.80 | 0.70 |  |  |  | 
15 | Cc1cc(C)n2nc(SCc3cccnc3)nc2n1 [Compound 19] | 1.17 | 0.00 |  |  |  | 
16 | Cc1cc(C)n2nc(SCc3ccc4ccccc4n3)nc2n1 [Compound 20] | 2.00 | 0.70 |  |  |  | 
17 | CCOC(=O)c1ccc(CSc2nc3nc(C)cc(C)n3n2)o1 [Compound 21] | 3.2 | 1.25 |  |  |  | 
18 | Cc1cc(C)n2nc(SCC3CCCO3)nc2n1 (centres unmarked) [Compound 22] | 0.60 | 0.00 |  |  |  | 
19 | Cc1cc(C)n2nc(SCCc3ccccc3)nc2n1 [Compound 23] | 2.50 | 2.50 |  |  |  | 
20 | Cc1cc(Cl)n2nc(SCc3ccccc3)nc2n1 [Compound 25, 2-benzylthio-7-chloro-5-methyl-s-triazolo[1,5a]pyrimidine] | 4.00 | 1.40 |  |  |  | 

Row | SMILES | PDE Lung; α (I50 theophylline / I50 compound) [1] | PDE Kidney; α (I50 theophylline / I50 compound) [2] | % change of cardiac output (anesthetized dogs) | % change of heart rate (anesthetized dogs) | % change of stroke volume (anesthetized dogs) | Solubility [3]
21 | CCCNc1cc(C)nc2nc(SCc3ccccc3)nn12 [Compound 26] | 2.00 | 0.90 |  |  |  | 
22 | Cc1cc(N(C)C)n2nc(SCc3ccccc3)nc2n1 [Compound 28] | 8.00 | 3.40 |  |  |  | 
23 | Cc1cc(N2CCCCC2)n2nc(SCc3ccccc3)nc2n1 [Compound 30] | 10.0 | 3.20 |  |  |  | 
24 | Cc1cc(N2CCOCC2)n2nc(SCc3ccccc3)nc2n1 [Compound 31] | 7.70 | 4.80 |  |  |  | 
25 | Cc1cc(NN(C)C)n2nc(SCc3ccccc3)nc2n1 [Compound 33] | 5.30 | 8.00 |  |  |  | 
26 | CCOC(=O)c1cnc2nc(SCc3ccccc3)nn2c1O [Compound 34, 2-benzylthio-6-carbethoxy-7-hydroxy-s-triazolo [1,5a]pyrimidine] | 0.00 | 0.00 |  |  |  | 
27 | CCOC(=O)c1cnc2nc(SCc3ccccc3)nn2c1Cl [Compound 35, 2-benzylthio-6-carbethoxy-7-chloro-s-triazolo[1,5a]pyrimidine] |  |  |  |  |  | Insoluble
28 | CCOC(=O)c1cnc2nc(SCc3ccccc3)nn2c1N1CCOCC1 [Compound 36] | 6.90 | 2.90 |  |  |  | 
29 | CCOC(=O)c1cnc2nc(SCc3ccccc3)nn2c1NCc1ccccc1 [Compound 37] |  |  |  |  |  | Insoluble
30 | CCOC(=O)c1cnc2nc(SCc3ccccc3)nn2c1NCCO [Compound 38] |  |  |  |  |  | Insoluble
31 | CCOC(=O)c1cnc2nc(SCc3ccccc3)nn2c1S [Compound 40, 2-BENZYLTHIO-6-CARBETHOXY-7-MERCAPTO-s-TRIAZOLO[1,5a] PYRIMIDINE] |  |  |  |  |  | Insoluble
32 | CCCc1cc(CCC)n2nc(SCc3ccccc3)nc2n1 [Compound 41, 2-benzylthio-5,7-di-n-propyl-1,2,4-triazolo[1,5a]pyrimidine] |  |  | +23% | -4.2% | +27% | 
33 | CCCc1cc(CCC)n2nc(SCc3ccc(C)cc3)nc2n1 [Compound 43, 5,7-di-n-propyl-2-(4-methylbenzyl)thio-1,2,4-triazolo[1,5a]pyrimidine] |  |  | +34.3% | -2.8% | +3.8% | 
34 | CCCc1cc(CCC)n2nc(SCc3ccc(C(=O)O)cc3)nc2n1 [Compound 44, 5,7-di-n-propyl-2-(4-carboxybenzyl)thio-1,2,4-triazolo[1,5a]pyrimidine] |  |  | +18% | +0.2% | +18% | 
35 | CCCc1cc(CCC)n2nc(SCc3ccncc3)nc2n1 [Compound 45, 5,7-di-n-propyl-2-(4-picolyl)thio-1,2,4-triazolo[1,5a]pyrimidine] |  |  | +27% | -8.1% | +39% | 
36 | CCCc1cc(CCC)n2nc(SCc3cccnc3)nc2n1 [Compound 46, 5,7-di-n-propyl-2-(3-picolyl)thio-1,2,4-triazolo[1,5a]pyrimidine] |  |  | +20% | -10.9% | +35% | 
37 | CCCc1cc(CCC)n2nc(S(=O)(=O)Cc3ccccc3)nc2n1 [Compound 47, 2-benzylsulfonyl-5,7-di-n-propyl-1,2,4-triazolo[1,5a]pyrimidine] |  |  | +35.6% | +0.2% | +34.7% | 
38 | CCCc1cc(CCC)n2nc(S(=O)(=O)Cc3ccc(C)cc3)nc2n1 [Compound 48, 5,7-di-n-propyl-2-(4-methylbenzyl)sulfonyl-1,2,4-triazolo[1,5a]pyrimidine] |  |  | +16.4% | -14.3% | +36.1% | 
39 | CC(=O)Cc1cc(C)nc2nc(SCc3ccccc3)nn12 [Compound 51, 2-BENZYLTHIO-5-METHYL-7-(2-ACETONYL)-1,2,4-TRIAZOLO [1,5a]PYRIMIDINE] |  |  | +46.2% | +3.3% | +42.0% | 
